Measured values from patent US12150925B2, “Buthionine sulfoximine and a metallodrug for the treatment of cancer, HIV or a rheumatic disease” (Istituto Superiore di Sanità, priority 2017, dated 2024).

Tests used:
[1] = system: Supt-1 T-cells; experiment: Viability of Supt-1 T-cells (MTS assay, FIGS. 2 and 6); assay type: cell-based
Description: FIG. 2 is a graph showing the viability of Supt-1 T-cells treated with different concentrations of auranofin (AU) or buthionine sulfoximine (BSO). Viability was measured 72 hours after treatment with the drugs at the indicated concentrations with the MTS assay. Absorbance values were normalized over untreated controls and expressed as percentage. BSO=buthionine sulfoximine. Concentrations are expressed in μM. Data are expressed as mean t SEM and were analysed by the Turkey posttest following One Way ANOVA. *P<0.05; **P<0.01 ***P<0.001; ****P<0.0001. NS: non-significant. The synergistic index (SI) is expressed where significant differences exist in comparison with the single drug treatments.
FIG. 6 is a graph showing the viability of Supt-1 T-cells treated with different concentrations of cisplatin or buthionine sulfoximine (BSO). Viability was measured 72 hours after treatment with the drugs at the indicated concentrations with the MTS assay. Absorbance values were normalized over untreated controls and expressed as percentage. BSO=buthionine sulfoximine. Concentrations are expressed in μM; Asterisks show the significant differences [*q<0.05; **q<0.01; q is the P value corrected for multiple comparisons by controlling the False Discovery Rate (threshold for significance=q=0.05)]. NS: non-significant. The synergistic index (SI) is expressed where significant differences exist in comparison with the single drug treatments.
In-vitro activity on activated CD4^+ T-cells and leukemia/lymphoma Methods. Resting CD4^+ T-cells, cultured T-cell leukemic Jurkat cells and Sup-T1 cells were left untreated or incubated for 24-72 hours with various concentrations of auranofin and/or buthionine sulfoximine (BSO), or chloroquine (only CD4^+ T-cells) or cisplatin (only Jurkat and Supt-T1 cells) CD4^+ T-cells were then activated by adding phytohemagglutinin (2 μg/mL). Alternatively, CD4^+ T-cells were first activated with anti-CD3/anti-CD28 beads and, after 72 hours, were left untreated or were incubated with auranofin and/or buthionine sulfoximine (BSO), or chloroquine. Cell viability was determined 24-72 hours post-activation with an MTT assay (CellTiter 96@ Non-Radioactive Cell Proliferation Assay) or MTS assay (CellTiter 960 AQueous One Solution Cell Proliferation Assay System; Promega). For the assay, 300×10^5 cells were re-suspended in 100 μL of medium and transferred to a 96-well plate. Cells were then incubated with 20 μL of a substrate solution (One Solution Reagent) for 3-4 hours in a CO2 (5%) incubator at 37° C. For the MTT assay, 100 μL of a Solubilization/Stop Solution were used to stop the reaction. Medium-only containing wells were included to serve as a blank control. Absorbance levels were recorded at 490 nm (MTS) or 570 nm (MTT) and, after subtraction of the blank, absorbance values were expressed as percentage of controls.
Results. The results from the new dosage combinations were compared to the untreated cells as well as the cells treated with single drugs or “classical” dosages, in a multiple comparison analysis. Thus, the statistical significances shown are also significant compared to the untreated cells.

[2] = system: HIV; experiment: Theoretical clinical example, HIV patient, with computational simulation of the viral reservoir; parameters: species or system human; conditions: auranofin 6 mg bid six months plus low-dose BSO (three one-week cycles, 0.08 g orally every 6 hours) with ART; baseline 22 copies/10^6 CD4^+ T-cells
Excerpt: A simulation of the viral load (RNA copies/ml) and viral reservoir (L cells) dynamics in a human model is provided. The trend of productively infected cells (T*) is also shown. The simulation is based on the five differential equations model in Rong and Perelson (2009). The peaks in the viral load correspond to the periods of activation of latently infected CD4+ T-cells. For starting data see Rong and Perelson (2009). Different proliferation rates (p) are shown (day^−1), corresponding to different drug treatments, or absence of any treatment. The bottom three panels depict a scenario without the drugs, with p=1.4 day^−1. The effects of BSO in combination with auranofin at plasma molar ratios (BSO/auranofin) of 1:0.25 (top three panels), 1:0.5 (second line of panels from top), 1:1 (third line of panels from top) are simulated. The plasma concentration of auranofin is […]. The activation function adopted to simulate lymphocyte encounter with antigens is illustrated in Rong and Perelson (2009).
The following is a theoretical example for a typical situation wherein the BSO is used at a reduced concentration, with a clinically-acceptable dosage of auranofin to treat a patient with an HIV diagnosis.
Patient received an HIV diagnosis in 2008. […]
The patient is subjected to quantification of viral DNA, the result of which is 22 copies/10^6 CD4^+ T-cells. […]

[3] = system: glutathione levels; conditions: Malaker et al. 1994; cited from earlier work
[4] = system: MKN-28 cells; conditions: BSO 5, 10 and 25 mM; cisplatin 0.1-3.0 μg/ml; cited from earlier work
[5] = system: SIVmac251; conditions: auranofin 0.4 mg/kg/day and BSO 450 mg/kg in combination with ART; cited from earlier work

CCCCS(=N)(=O)CCC(N)C(=O)O (centres unmarked) [BSO, buthionine sulfoximine]
difference between BSO only and the same BSO concentration in the presence of auranofin ([1]; BSO 250 μM): no significant difference | effect on cisplatin-induced cell death ([1]; BSO 250 μM with cisplatin): increased cisplatin-induced cell death | synergistic index ([1]; BSO 250 μM with cisplatin (FIG. 6), effect antagonistic): > 1.1 | effect of BSO only ([1]; BSO 250 μM, no auranofin): cytotoxic effect | effect of BSO on susceptibility to cisplatin ([1]; FIG. 6): chemosensitizing effect | viability ([1]; auranofin and BSO 250 μM): low viability | difference between combined drug treatment and the single drugs alone ([1]; submicromolar BSO with auranofin, e.g. auranofin 0.5+BSO 0.75 μM): extremely significant difference | inhibition of cellular proliferation compared with BSO 250 μM ([1]; submicromolar BSO with cisplatin 10 μM): no statistical difference | synergism of BSO and cisplatin ([1]; submicromolar BSO with cisplatin 10 μM (FIG. 6)): true synergism | anticancer effect ([1]; submicromolar BSO with clinically-achievable auranofin concentrations (FIGS. 2 and 3)): direct anticancer effect | viral reservoir after treatment [2]: < 10 copies of viral DNA/million cells | BSO concentration required to achieve a 90% decrease in glutathione levels [3]: 6 µM | effect of BSO pre-treatment on antitumor activity of cisplatin [4]: increased the antitumor activity of cisplatin | disease outcome following suspension of all therapies [5]: functional cure
